For ten compounds, IC50 and CDK5/CDK2 specificity results are on record in patent publication US20220389009A1, “SUBSTITUTED 1,6-NAPHTHYRIDINE INHIBITORS OF CDK5” (Goldfinch Bio, Inc., priority 2019, published 2022).

One assay deals with CDK5/p25 (Homo sapiens, UniProt Q00535). Kind of assay: CDK5 mobility shift assay (enzymatic activity of CDK5/p25). To be noted: for IC50: 0.154 nM CDK5/p25, FL peptide 29, 60 min at room temperature, read-out: CDK5 IC50; for CDK5/CDK2 specificity: fold more active against CDK5 than CDK2. The assay is classed as biochemical. Here is the method: (§1) Compound potency was measured via a change in the enzymatic activity of CDK5/p25, and optionally of CDK2/CycA2. Enzymes, CDK5/p25 and CDK2/CycA2, were sourced from Carna Biosciences (Cat #04-106 and 04-103, respectively). Test compound stocks were diluted in 100% DMSO and serially diluted 3-fold in a 384-well plate using a TECAN EVO200 (TECAN). Staurosporine was used as a reference control compound in all assays.
(§2) Twenty nL of compound were transferred into a 384-well plate (Greiner 781201) using an Echo550 (Labcyte Inc). Enzyme, ATP, and 10 mM MgCl2 were preincubated at room temperature with the compound in assay buffer (50 mM HEPES pH 7.5, 1 mM EGTA, 0.01% Brij-35, 0.05% BSA, 2 mM DTT) for 30 minutes. Peptide substrate (FL peptide 29 (Perkin Elmer) for CDK5/p25; FL Peptide 18 (Perkin Elmer) for CDK2/CycA2) was added to initiate the reaction. The final assay contained 0.154 nM CDK5/p25 or 1.25 nM CDK2/CycA2, […] (for CDK5/p25) or 37 μM (for CDK2/CycA2) ATP, and 1.5 μM of the appropriate peptide substrate. The final DMSO concentration was <1%.
(§3) The CDK5/p25 reaction was incubated at room temperature for 60 min. The CDK2/CycA2 reaction was incubated at room temperature for 120 min. The reactions were quenched by the addition of 70 μL stopping buffer containing 0.5 M EDTA. Samples were analyzed using the EZ Reader (Perkin Elmer).
(§4) The results were expressed as % vehicle, where % vehicle=100×(U−C2)/(C1−C2), where U is the signal of sample, C1 is the average of the high controls (signal with no compound added), and C2 is the average of low controls (signal with the buffer in place of enzyme). The ICso is determined by fitting the percentage of inhibition as a function of compound concentrations using a 4-parameter fit defined as follows.
(§5) Y=Bottom+(Top−Bottom)/(1+10^((LobIC50-X)*Hill Slope)), where X is the log of the compound concentration, Y is the % vehicle or response at X, Top and Bottom are the plateaus in the same units as Y, and the Hill's Slope is unitless, and the ICso is the half-maximal inhibitory concentration.

A further assay deals with CDK2/CycA2 (Homo sapiens, UniProt P24941). Kind of assay: CDK2 mobility shift assay (enzymatic activity of CDK2/CycA2). The assay is classed as biochemical. To be noted: 1.25 nM CDK2/CycA2, 37 μM ATP, FL Peptide 18, 120 min at room temperature; read-out: CDK2 IC50. Here is the method:
as §1, §2, §3, §4, §5

Sequence of CDK5/p25 (Q00535 whole entry): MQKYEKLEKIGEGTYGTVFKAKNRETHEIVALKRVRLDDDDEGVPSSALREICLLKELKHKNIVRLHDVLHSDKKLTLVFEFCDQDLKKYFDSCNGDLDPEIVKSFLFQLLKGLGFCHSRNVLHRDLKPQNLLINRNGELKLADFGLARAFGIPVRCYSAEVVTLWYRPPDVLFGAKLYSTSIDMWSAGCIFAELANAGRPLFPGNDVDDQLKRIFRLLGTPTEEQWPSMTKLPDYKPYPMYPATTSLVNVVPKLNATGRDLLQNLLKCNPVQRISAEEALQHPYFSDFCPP
Sequence of CDK5/p25 (Q15078 99-307 partner limits assumed): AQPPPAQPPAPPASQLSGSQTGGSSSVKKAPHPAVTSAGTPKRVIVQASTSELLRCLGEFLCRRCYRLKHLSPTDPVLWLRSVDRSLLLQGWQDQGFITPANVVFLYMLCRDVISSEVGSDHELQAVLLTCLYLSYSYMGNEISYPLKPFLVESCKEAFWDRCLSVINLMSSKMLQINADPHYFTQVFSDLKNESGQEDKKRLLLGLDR

One may read the IC50 as the concentration needed to halve the response being measured. Regarding `CN1CCC(C(C)(F)c2ccc3cnc(Nc4ccc(-n5cccn5)cc4F)cc3n2)CC1` (single isomer, unassigned) [Compound 363, 2-[1-fluoro-1-(1-methylpiperidin-4-yl)ethyl]-N-[2-fluoro-4-(pyrazol-1-yl)phenyl]-1,6-naphthyridin-7-amine], on CDK5/p25, the IC50 lay in the range of 10 to 100 nM; the CDK5/CDK2 specificity result is “++ (greater than 10-fold and less than or equal to 100-fold more active against CDK5 than CDK2)”. Moreover, at CDK2/CycA2, the IC50 is > 1000 nM.
On to `O=C(O)[C@@H]1CNCC[C@@H]1Nc1ccc2cnc(Nc3ccc(-n4ccc(CO)n4)cc3F)cc2n1` (relative stereo) [Compound 131, cis-4-[[7-([2-fluoro-4-[3-(hydroxymethyl)pyrazol-1-yl]phenyl]amino)-1,6-naphthyridin-2-yl]amino]piperidine-3-carboxylic acid], for which, on CDK5/p25, the IC50 was in the range of 100 to 1000 nM; the CDK5/CDK2 specificity result is “++ (greater than 10-fold and less than or equal to 100-fold more active against CDK5 than CDK2)”. Besides, the IC50 at CDK2/CycA2 was > 1000 nM.
In the case of `COC(=O)c1ccn(-c2ccc(Nc3cc4nc(C(O)C5CCN(C)CC5)ccc4cn3)c(F)c2)n1` (stereo not drawn) [Compound 347], on CDK5/p25, the IC50 was < 10 nM and the CDK5/CDK2 specificity entry is recorded as “+++ (greater than 100-fold more active against CDK5 than CDK2)”. Further, the IC50 at CDK2/CycA2 was in the range of 100 to 1000 nM.
For `CN1CCC(S(=O)(=O)c2ccc3cnc(Nc4ccccc4N4CCOCC4)cc3n2)CC1` [Compound 266], on CDK5/p25, the 50% inhibitory concentration (IC50) was > 1000 nM; the CDK5/CDK2 specificity entry was “++ (greater than 10-fold and less than or equal to 100-fold more active against CDK5 than CDK2)”. At CDK2/CycA2, the IC50 was > 1000 nM.
On to `CN1CCC(S(=O)(=O)c2ccc3cnc(Nc4ccc(N5CCCC5)cc4)cc3n2)CC1` [Compound 301], for which, at CDK5/p25, the IC50 is < 10 nM and the CDK5/CDK2 specificity result is on record as “+++ (greater than 100-fold more active against CDK5 than CDK2)”. Besides, the IC50 on CDK2/CycA2 lay in the range of 100 to 1000 nM.
On to `COC(c1ccc2cnc(Nc3ccc(-n4cccn4)cc3F)cc2n1)C1CCN(C)CC1` (single isomer, unassigned) [Compound 387, N-[2-fluoro-4-(pyrazol-1-yl)phenyl]-2-[methoxy(1-methylpiperidin-4-yl)methyl]-1,6-naphthyridin-7-amine], for which, at CDK5/p25, the IC50 was in the range of 100 to 1000 nM; the CDK5/CDK2 specificity entry is “++ (greater than 10-fold and less than or equal to 100-fold more active against CDK5 than CDK2)”. Moreover, at CDK2/CycA2, the IC50 was > 1000 nM.
For `CN1CCC(S(=O)(=O)c2ccc3cnc(Nc4ccc(-c5cncnc5)cc4F)cc3n2)CC1` [Compound 293], on CDK5/p25, the IC50 is < 10 nM and the CDK5/CDK2 specificity entry is “+++ (greater than 100-fold more active against CDK5 than CDK2)”. Besides, on CDK2/CycA2, the IC50 fell in the range of 100 to 1000 nM.
For `CN1CCC(S(=O)(=O)c2ccc3cnc(Nc4ccc(CN5CCOCC5)cc4)cc3n2)CC1` [Compound 261], in that order: < 10 nM, “+++ (greater than 100-fold more active against CDK5 than CDK2)” and 100 to 1000 nM.
For the compound `CN1CCC(O)(C(O)c2ccc3cnc(Nc4ccc(-n5cccn5)cc4F)cc3n2)CC1` (stereo not drawn) [Compound 240, 4-[(7-[[2-fluoro-4-(pyrazol-1-yl)phenyl]amino]-1,6-naphthyridin-2-yl) (hydroxy)methyl]-1-methylpiperidin-4-ol], on CDK5/p25, the IC50 lay within 100 to 1000 nM; the CDK5/CDK2 specificity result was “++ (greater than 10-fold and less than or equal to 100-fold more active against CDK5 than CDK2)”. Further, the IC50 on CDK2/CycA2 is > 1000 nM.
For the compound `CN1CCC(S(=O)(=O)c2ccc3cnc(Nc4cnc5ccc(Cl)nn45)cc3n2)CC1` [Compound 286], on CDK5/p25, the IC50 was > 1000 nM and the CDK5/CDK2 specificity result is on record as “+ (10-fold or less more active against CDK5 than CDK2)”. The IC50 on CDK2/CycA2 was > 1000 nM.
